Test results from US10399989B2, “Pyrazolopyrimidine derivatives as BTK inhibitors for the treatment of cancer” (Loxo Oncology, Inc., priority 2016, dated 2019).
pIC50: −log10 of the molar value. Like-named read-outs stand apart in the source and are kept apart here.

How the values were obtained:
EGFR = EGFR (Homo sapiens (Human), UniProt P00533); test: EGFR binding affinity (TR-FRET, LanthaScreen); conditions: 5 h incubation
Method in brief: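 IC50 derived by variable-slope fit of TR-FRET signal (ex 340, em 615 and 665 nm) against inhibitor concentration. Mix contained recombinant GST-detected EGFR at 2.5 nM, Eu anti-GST antibody at 2 nM and Kinase Tracer 199 at 3 nM in Kinase Buffer A, 5 h incubation.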

BTK^C481S = BTK^C481S (Homo sapiens (Human), UniProt Q06187, C481S); test: BTK^C481S binding affinity (TR-FRET, LanthaScreen); conditions: 5 h incubation
BTK^C481S, sequence (Q06187 whole entry C481S): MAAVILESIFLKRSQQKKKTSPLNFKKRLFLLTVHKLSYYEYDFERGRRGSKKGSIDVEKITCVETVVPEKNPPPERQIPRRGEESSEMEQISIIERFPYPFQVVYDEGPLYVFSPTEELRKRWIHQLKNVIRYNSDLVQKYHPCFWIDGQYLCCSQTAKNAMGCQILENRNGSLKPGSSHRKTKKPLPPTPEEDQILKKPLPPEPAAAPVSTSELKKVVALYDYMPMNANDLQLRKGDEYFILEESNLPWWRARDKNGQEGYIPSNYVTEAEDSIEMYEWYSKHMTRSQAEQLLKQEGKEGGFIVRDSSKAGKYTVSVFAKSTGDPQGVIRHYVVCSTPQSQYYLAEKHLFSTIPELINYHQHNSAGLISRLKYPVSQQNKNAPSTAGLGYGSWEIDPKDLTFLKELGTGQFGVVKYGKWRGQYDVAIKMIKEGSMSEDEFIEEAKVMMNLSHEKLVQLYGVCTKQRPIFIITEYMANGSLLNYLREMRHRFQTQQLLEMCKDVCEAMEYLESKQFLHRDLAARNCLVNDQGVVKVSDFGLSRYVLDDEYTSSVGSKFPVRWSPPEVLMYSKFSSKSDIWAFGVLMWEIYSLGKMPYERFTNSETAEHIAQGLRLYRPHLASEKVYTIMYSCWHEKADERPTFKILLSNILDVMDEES
Method in brief: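 Tracer-displacement TR-FRET: 5 nM recombinant kinase, 2 nM Eu anti-His antibody and 30 nM Kinase Tracer 236 incubated 5 h with varying inhibitor in Kinase Buffer A. Read at 340 nm excitation, 615/665 nm emission. IC50 from log[inhibitor]–response variable-slope fit.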

[1] = tested on: OCI-Ly10 human DLBCL cells; test: OCI-Ly10 anti-proliferative activity (Resazurin, 72 h); assay type: cell-based; conditions: read-out: Proliferation OCI-Ly10-IC50
Experimental: Compounds were assayed for effects on the growth of OCI-Ly10 human DLBCL cells that are dependent on NFκB signalling. OCI-Ly10 cells were grown in suspension in T225 flasks, centrifuged and re-suspended in 2.5% FBS containing media. Cells were then plated at 7.5×10^3 cells per well in 96-well plates in varying concentrations of compound and incubated for 72 h at 37° C. An additional plate of cells to be used as the Day 0 read was seeded without compound addition, Resazurin was added to each well, incubated for 5 h and the fluorescence measured at 590 nm. After 72 h of compound treatment, Resazurin was added to each well of the compound treated plates, incubated for 5 h and the fluorescence measured at 590 nm. The IC50 was then calculated by subtracting the average Day 0 value from each well value from the treated plates, each treatment was then calculated as a percentage of the DMSO control and the percentages plotted against the inhibitor concentration to estimate the IC50 from log [Inhibitor] vs response using the Variable Slope model in Graphpad prism from Graphpad software (SanDiego, Calif.).

BTK^WT = BTK^WT (Homo sapiens (Human), UniProt Q06187); test: BTK^WT binding affinity (TR-FRET, LanthaScreen)
BTK^WT, sequence (Q06187 whole entry): as the sequence (Q06187 whole entry C481S) above, with S481C counted along it
Method in brief: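 Tracer-displacement TR-FRET: 2.5 nM recombinant BTK, 2 nM Eu anti-His antibody and 15 nM Kinase Tracer 236 in Kinase Buffer A with inhibitor for 5 h. Emission read at 615/665 nm (excitation 340 nm); IC50 from variable-slope fit of log concentration vs response.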

[2] = TR-FRET binding, 5 h incubation, read-out: BTK^WT IC50
[3] = Table 6, numeric values, read-out: BTK Binding IC50

EGFR, sequence (P00533 25-1210): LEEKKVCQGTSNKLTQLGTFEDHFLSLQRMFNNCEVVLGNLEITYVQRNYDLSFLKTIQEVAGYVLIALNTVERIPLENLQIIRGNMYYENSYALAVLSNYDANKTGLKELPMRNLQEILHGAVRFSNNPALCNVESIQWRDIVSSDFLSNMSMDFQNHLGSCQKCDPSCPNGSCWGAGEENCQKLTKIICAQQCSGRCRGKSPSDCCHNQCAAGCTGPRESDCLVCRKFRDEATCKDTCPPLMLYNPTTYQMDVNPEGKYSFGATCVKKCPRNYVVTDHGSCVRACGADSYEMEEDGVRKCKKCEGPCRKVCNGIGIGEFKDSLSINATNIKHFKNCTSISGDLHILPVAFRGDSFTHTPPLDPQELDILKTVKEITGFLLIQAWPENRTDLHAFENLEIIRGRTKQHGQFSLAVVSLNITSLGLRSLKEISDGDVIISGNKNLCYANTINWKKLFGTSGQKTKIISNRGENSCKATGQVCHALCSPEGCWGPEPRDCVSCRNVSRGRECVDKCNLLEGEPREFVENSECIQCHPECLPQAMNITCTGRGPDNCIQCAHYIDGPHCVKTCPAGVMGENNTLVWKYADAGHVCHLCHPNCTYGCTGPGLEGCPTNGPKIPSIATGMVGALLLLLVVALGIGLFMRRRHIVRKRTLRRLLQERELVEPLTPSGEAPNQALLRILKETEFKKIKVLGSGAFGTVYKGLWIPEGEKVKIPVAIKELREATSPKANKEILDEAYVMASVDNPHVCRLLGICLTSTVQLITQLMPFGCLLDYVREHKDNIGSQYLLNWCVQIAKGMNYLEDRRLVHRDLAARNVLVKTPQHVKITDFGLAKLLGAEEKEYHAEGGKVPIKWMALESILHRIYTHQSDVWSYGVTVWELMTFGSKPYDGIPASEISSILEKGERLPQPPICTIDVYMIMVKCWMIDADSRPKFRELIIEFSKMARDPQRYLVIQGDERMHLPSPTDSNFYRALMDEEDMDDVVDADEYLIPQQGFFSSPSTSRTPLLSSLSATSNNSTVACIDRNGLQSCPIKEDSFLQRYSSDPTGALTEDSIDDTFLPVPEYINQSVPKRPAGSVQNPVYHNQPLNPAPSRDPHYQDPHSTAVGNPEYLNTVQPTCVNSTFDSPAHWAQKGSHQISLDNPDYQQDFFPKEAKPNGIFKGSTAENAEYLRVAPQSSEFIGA

COc1ccccc1C(=O)NCc1ccc(-c2nn(C3CCCC(C(=O)N(C)C)C3)c3ncnc(N)c23)cc1 (stereo not shown) [Example 42, N-[[4-[4-amino-1-[3-(dimethylcarbamoyl)cyclohexyl]pyrazolo[3,4-d]pyrimidin-3-yl]phenyl]methyl]-2-methoxy-benzamide] gave a pIC50 (EGFR) of 5.00 to 6.00, a pIC50 (BTK^C481S) of no less than 8.00 and a pIC50 ([1]; Homo sapiens, OCI-Ly10, 72 h) of 6.00 to 7.00. The pIC50 (BTK^WT; [2]) was no less than 8.00.
With COc1ccccc1C(=O)NCc1ccc(-c2nn(C3CCC4(C3)OCCO4)c3ncnc(N)c23)cc1 (stereo not shown) [Example 25, N-[[4-[4-amino-1-(1,4-dioxaspiro[4.4]nonan-8-yl)pyrazolo[3,4-d]pyrimidin-3-yl]phenyl]methyl]-2-methoxy-benzamide] the pIC50 (EGFR) was 6.00 to 7.00, the pIC50 (BTK^C481S) was no less than 8.00 and the pIC50 ([1]; Homo sapiens, OCI-Ly10, 72 h) was 7.00 to 8.00. It also gave a pIC50 (BTK^WT; [2]) of no less than 8.00.
Work on COc1ccccc1C(=O)NCc1ccc(-c2nn(C3CCC(C)(O)CC3)c3ncnc(N)c23)cc1 (single isomer, unassigned) [Example 91, N-[[4-[4-amino-1-(4-hydroxy-4-methyl-cyclohexyl)pyrazolo[3,4-d]pyrimidin-3-yl]phenyl]methyl]-2-methoxy-benzamide] yielded a pIC50 (EGFR) of 6.00 to 7.00, a pIC50 (BTK^C481S) of no less than 8.00 and a pIC50 [1] of 6.00 to 7.00. For the same molecule, the pIC50 (BTK^WT; [2]) was no less than 8.00.
For COc1ccccc1C(=O)NCc1ccc(-c2nn(C3CCC(OC(=O)c4ccc(C)cc4)CC3)c3ncnc(N)c23)cc1 (stereo not shown) [Example 46, [4-[4-amino-3-[4-[[(2-methoxybenzoyl)amino]methyl]phenyl]pyrazolo[3,4-d]pyrimidin-1-yl]cyclohexyl] 4-methylbenzoate], the pIC50 (EGFR) was 6.00 to 7.00, the pIC50 (BTK^C481S) was 7.00 to 8.00 and the pIC50 ([1]; Homo sapiens, OCI-Ly10, 72 h) was 6.00 to 7.00. It also gave a pIC50 (BTK^WT; [2]) of 7.00 to 8.00.
With COc1ccccc1C(=O)NCc1ccc(-c2nn(C3C=CCCC3)c3ncnc(N)c23)cc1 (stereo not shown) [Example 49, N-[[4-(4-amino-1-cyclohex-2-en-1-yl-pyrazolo[3,4-d]pyrimidin-3-yl)phenyl]methyl]-2-methoxy-benzamide] the pIC50 (EGFR) was 7.00 to 8.00, the pIC50 (BTK^C481S) was no less than 8.00 and the pIC50 ([1]; Homo sapiens, OCI-Ly10, 72 h) was 7.00 to 8.00. It also gave a pIC50 (BTK^WT; [2]) of no less than 8.00 and a pIC50 (BTK^WT; [3]) of 9.40.
In the case of COCCNc1ncnc2c1c(-c1ccc(CNC(=O)c3ccccc3OC)cc1)nn2[C@H]1C=C[C@H](O)C1 [Example 58, N-[[4-[1-[(1R,4R)-4-hydroxycyclopent-2-en-1-yl]-4-(2-methoxyethylamino)pyrazolo[3,4-d]pyrimidin-3-yl]phenyl]methyl]-2-methoxy-benzamide], the pIC50 (EGFR) was 5.00 to 6.00, the pIC50 (BTK^C481S) was no less than 8.00 and the pIC50 ([1]; Homo sapiens, OCI-Ly10, 72 h) was 6.00 to 7.00. The pIC50 (BTK^WT; [2]) was no less than 8.00.
COc1ccccc1C(=O)NCc1ccc(-c2nn([C@H]3C=C[C@H](OC(C)=O)C3)c3ncnc(N)c23)cc1 [Example 35, [(1R,4R)-4-[4-amino-3-[4-[[(2-methoxybenzoyl)amino]methyl]phenyl]pyrazolo[3,4-d]pyrimidin-1-yl]cyclopent-2-en-1-yl] acetate] showed a pIC50 (EGFR) of 7.00 to 8.00, a pIC50 (BTK^C481S) of no less than 8.00 and a pIC50 ([1]; Homo sapiens, OCI-Ly10, 72 h) of 7.00 to 8.00. The pIC50 (BTK^WT; [2]) was no less than 8.00.
COc1ccccc1C(=O)NCc1ccc(-c2nn(C3CCC(OC)CC3)c3ncnc(N)c23)cc1 (stereo not shown) [Example 39, N-[[4-[4-amino-1-(4-methoxycyclohexyl)pyrazolo[3,4-d]pyrimidin-3-yl]phenyl]methyl]-2-methoxy-benzamide] showed a pIC50 (EGFR) of 6.00 to 7.00, a pIC50 (BTK^C481S) of no less than 8.00 and a pIC50 ([1]; Homo sapiens, OCI-Ly10, 72 h) of 7.00 to 8.00. It also gave a pIC50 (BTK^WT; [2]) of no less than 8.00 and a pIC50 (BTK^WT; [3]) of 8.85.
Work on COc1ccccc1C(=O)NCc1ccc(-c2nn([C@H]3C=C[C@H](NC(C)=O)C3)c3ncnc(N)c23)cc1 [Example 60, N-[[4-[1-[(1R,4R)-4-acetamidocyclopent-2-en-1-yl]-4-amino-pyrazolo[3,4-d]pyrimidin-3-yl]phenyl]methyl]-2-methoxy-benzamide] yielded a pIC50 (EGFR) of 5.00 to 6.00, a pIC50 (BTK^C481S) of no less than 8.00 and a pIC50 ([1]; Homo sapiens, OCI-Ly10, 72 h) of 6.00 to 7.00. It also gave a pIC50 (BTK^WT; [2]) of no less than 8.00.
In the case of COc1ccccc1C(=O)NCc1ccc(-c2nn(C3CC=CC3)c3ncnc(N)c23)cc1 [Example 40, N-[[4-(4-amino-1-cyclopent-3-en-1-yl-pyrazolo[3,4-d]pyrimidin-3-yl)phenyl]methyl]-2-methoxy-benzamide], the pIC50 (EGFR) was 6.00 to 7.00, the pIC50 (BTK^C481S) was no less than 8.00 and the pIC50 ([1]; Homo sapiens, OCI-Ly10, 72 h) was 7.00 to 8.00. The pIC50 (BTK^WT; [2]) was no less than 8.00.
Molecule COc1ccccc1C(=O)NCc1ccc(-c2nn([C@@H]3C[C@@H](O)C4CC43)c3ncnc(N)c23)cc1 (stereo partly drawn) [Example 45, N-[[4-[4-amino-1-[(2R,4R)-4-hydroxy-2-bicyclo[3.1.0]hexanyl]pyrazolo[3,4-d]pyrimidin-3-yl]phenyl]methyl]-2-methoxy-benzamide] has a pIC50 (EGFR) of 6.00 to 7.00, a pIC50 (BTK^C481S) of no less than 8.00 and a pIC50 ([1]; Homo sapiens, OCI-Ly10, 72 h) of 6.00 to 7.00. The pIC50 (BTK^WT; [2]) was no less than 8.00.
